Measurements from patent publication US20230097866A1, “BACTERIAL TOPOISOMERASE INHIBITORS DERIVED FROM ISOMANNIDE” (Ohio State Innovation Foundation, priority 2020, published 2023).
Converted amounts (≈) assume the structure as drawn.

Columns and labels:
H37Rv (gyrA^D94K) = type: cell-based, Mycobacterium tuberculosis
H37Rv (katG^del) = test: microbe, parasite or virus in culture; type: cell-based; conditions: Mycobacterium tuberculosis, microbroth dilution
H37Rv (rpoB^S450L) = type: cell-based, Mycobacterium tuberculosis

Row | Compound | MIC H37Rv (gyrA^D94K) (H37Rv (gyrA^D94K)) [mg/L] | MIC (H37Rv (katG^del)) [mg/L] | MIC H37Rv (rpoB^S450L) (H37Rv (rpoB^S450L)) [mg/L]
1 | COc1ccc2ncc(F)c(CC[C@@]3(O)CO[C@@H]4[C@@H](NCc5ccc(Cl)c(Cl)c5)CO[C@@H]43)c2n1 [Compound 26, (3R,3aS,6S,6aR)-6-((3,4-dichlorobenzyl)amino)-3-(2-(3-fluoro-6-methoxy-1,5-napkthyridin-4-yl)ethyl)hexahydrofuro[3,2-b]-furan-3-ol] | 2 (≈ 3.93 µM) | 1 (≈ 1.97 µM) | 1 (≈ 1.97 µM)
2 | COc1ccc2ncc(F)c(CC[C@@]3(O)CO[C@@H]4[C@@H](NCc5ccc(C)cc5)CO[C@@H]43)c2n1 [Compound 25, (3R,3aS,6S,6aR)-3-(2-(3-fluora-6-methoxy-1,5-naphthyridin-4-yl)ethyl)-6-((4-methyllbenzyl)amino)hexahydrofuro[3,2-b]furan-3-ol] | 16 (≈ 35.3 µM) | 4 (≈ 8.82 µM) | 4 (≈ 8.82 µM)
